Test results: patent US11439650B2, “Thermo-kinetic mixing for pharmaceutical applications” (BOARD OF REGENTS, THE UNIVERSITY OF TEXAS SYSTEM, priority 2007, dated 2022)

Assays:
[1] = HPLC degradation products and mass balance of hydrocortisone formulation processed by TKC; format: physicochemical
Procedure: Pharmaceutical compositions of hydrocortisone were prepared by TKC, having an ejection temperature of approximately 160° C., and compared to the unprocessed drug substance to evaluate the formation of degradation products induced by processing.
Analytical testing of the hydrocortisone formulation processed by TKC was performed by HPLC using a Phenomenex C18 column and mobile phase of 65:35 methanol:water at a flow rate of 1 ml/min. Degradation products were identified and are described in terms of their retention time under this method.

[2] = neutral pH media; reference (42); cited from earlier work
[3] = DSC / modulated DSC glass transition analysis; format: physicochemical; conditions: DSC/mDSC, 10° C./min
Procedure: Differential Scanning calorimetry (DSC). DSC analysis was conducted using a TA Instruments Model 2920 DSC (New Castle, Del.) equipped with a refrigerated cooling system. Samples were weighed to 15±5 mg in aluminum crimped pans (Kit 0219-0041, Perkin-Elmer Instruments, Norwalk, Conn.). For the KTZ dispersions in Methocel™ E50 and Kollidon® 30 the samples were heated at a ramp rate of 10° C./min from 5 to 215° C. with a modulation temperature amplitude of 0.5° C. and a modulation period of 40 seconds for all studies. For the IND and KTZ dispersions in […]® L 100-55 the samples were analyzed by conventional, non-modulated DSC at a ramp rate of 10° C./min from 5 to 200° C. Ultrahigh purity nitrogen was used as the purge gas at a flow rate of 40 mL/min. All data analyses were performed using TA Universal Analysis 2000 software. The thermogram for amorphous KTZ, used in the DSC analysis of the solid dispersions formulations of KTZ in Methocel™ E50 and Kollidon® 30 was obtained on a second heating of crystalline KTZ following an initial heating to 215° C. followed by rapid cooling (20° C./min) to 5° C. The thermograms of Methocel™ E50 and Kollidon® 30 were obtained by first run DSC following preheating of the polymer powders to 90° C. for 15 minutes in an MF-50 model moisture analyzer (AND Company Ltd. Encino, Calif.) to expel absorbed moisture.
Modulated Differential scanning calorimetry testing for the griseofulvin products was performed using a TA Instruments Model 2920 DSC (New Castle, Del.) and analyzed using TA Universal Analysis 2000 Software. Samples were accurately weighed to 15±2 mg in aluminum crimped pans. […]
Modulated Differential scanning calorimetry testing of itraconazole:HPMC E5 processed by TKC and by HME was performed using a TA Instruments Model 2920 DSC (New Castle, Del.) and analyzed using TA Universal Analysis 2000 Software. […]
The tested were conducted on a TA Instruments Model 2920 DSC (New Castle, Del.) and analyzed using TA Universal Analysis 2000 Software. […]

For `C[C@]12CCC(=O)C=C1CC[C@@H]1[C@@H]2[C@@H](O)C[C@@]2(C)[C@H]1CC[C@]2(O)C(=O)CO` [Hydrocortisone, USP, Hydrocortisone], the “Impurity - 3.2” value ([1]; HPLC retention time 3.2) was 0.20%, the “Impurity - 3.9” value ([1]; HPLC retention time 3.9) was 0.26% and the “Impurity - 4.9” value ([1]; HPLC retention time 4.9) was 0.20%. For the same compound, the “Impurity - 5.5” value ([1]; HPLC retention time 5.5) was 0.62% and the “Impurity - 8.7” value ([1]; HPLC retention time 8.7) was 0.13%.
For `CC(=O)N1CCN(c2ccc(OCC3COC(Cn4ccnc4)(c4ccc(Cl)cc4Cl)O3)cc2)CC1` (stereo not drawn) [KTZ, ketoconazole], the “equilibrium (saturation) solubility” value [2] is listed as 5.98 µg/mL.
In the case of `CC(=O)N1CCN(c2ccc(OCC3COC(Cn4ccnc4)(c4ccc(Cl)cc4Cl)O3)cc2)CC1` (stereo not drawn) [amorphous KTZ, ketoconazole], the “glass transition temperature (Tg)” value [3] is reported as 45 °C and the “glass transition temperature (Tg)” value ([3]; listed as Amorphous KTZ) is reported as “approximately 45 °C”.
In the case of `COC1=CC(=O)C[C@@H](C)[C@]12Oc1c(Cl)c(OC)cc(OC)c1C2=O` [amorphous griseofulvin, griseofulvin], the “glass transition temperature (Tg)” value [3] is reported as 90 °C.
